Measured values from patent publication US9670227B2, “Thienopyrimidine derivatives, a process for their preparation and pharmaceutical compositions containing them” (LES LABORATOIRES SERVIER, priority 2013, dated 2017).
Where two headings read alike, the source gives them in different places.

Key:
[1] = system: H929 multiple myeloma tumour line; assay: In vitro cytotoxicity, Microculture Tetrazolium Assay; format: cell-based; conditions: H929 cells, 48 hours exposure, MTT, read-out: IC50 (μM) MTT H929
Procedure: The cytotoxicity studies were carried out on the H929 multiple myeloma tumour line.
The cells are distributed onto microplates and exposed to the test compounds for 48 hours.

Mcl-1 protein = Mcl-1 protein (UniProtKB primary accession number: Q07820) (Homo sapiens, UniProt Q07820); assay: Inhibition of Mcl-1 by fluorescence polarisation, Method 1; format: binding; conditions: read-out: IC50 (M) Mcl-1 FP
In short: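 Binding was measured as fluorescence polarisation of a fluorescein-labelled ligand (1 nM) displaced from Mcl-1 (5 nM), both final. Compounds ran as 11-point series with final DMSO at 5%.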

[2] = fluorescence polarisation test, Method 2 values are underlined in the patent (underlining not visible here)
[3] = fluorescence polarisation, Method 1, or Method 2

Chain of Mcl-1 protein (Q07820 whole entry): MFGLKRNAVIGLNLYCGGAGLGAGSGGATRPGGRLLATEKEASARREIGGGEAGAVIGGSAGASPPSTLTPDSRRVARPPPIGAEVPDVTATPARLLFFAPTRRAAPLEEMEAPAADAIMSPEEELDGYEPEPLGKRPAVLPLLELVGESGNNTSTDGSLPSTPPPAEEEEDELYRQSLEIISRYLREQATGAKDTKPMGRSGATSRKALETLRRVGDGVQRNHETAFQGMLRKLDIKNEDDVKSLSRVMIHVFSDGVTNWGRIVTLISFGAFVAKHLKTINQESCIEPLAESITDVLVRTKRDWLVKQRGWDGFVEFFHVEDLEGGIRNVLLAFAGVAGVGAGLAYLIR

Which results are given for `Cc1c(-c2c(-c3ccc(F)cc3)sc3ncnc(OC(Cc4ccccc4OCC(F)F)C(=O)O)c23)ccc(OCCN2CCN(C)CC2)c1Cl` [Example 4, (2R)-2-{[(5Sa)-5-{3-chloro-2-methyl-4-[2-(4-methylpiperazin-1-yl)ethoxy]phenyl}-6-(4-fluorophenyl)thieno[2,3-d]pyrimidin-4-yl]oxy}-3-[2-(2,2-difluoroethoxy)phenyl]propanoic acid]?
IC50 ([1]; Homo sapiens, NCI-H929, 48 h): 0.192 µM; IC50 (Mcl-1 protein; [2]): 1.6e-08 M

How did the IC50 ([1]; Homo sapiens, NCI-H929, 48 h) turn out when `CCCn1nccc1COc1ccccc1CC(Oc1ncnc2sc(-c3ccc(F)cc3)c(-c3ccc(OCCN4CCN(C)CC4)c(Cl)c3C)c12)C(=O)O` [Example 81, (2R)-2-{[(5Sa)-5-{3-chloro-2-methyl-4-[2-(4-methylpiperazin-1-yl)ethoxy]phenyl}-6-(4-fluorophenyl)thieno[2,3-d]pyrimidin-4-yl]oxy}-3-{2-[(1-propyl-1H-pyrazol-5-yl)methoxy]phenyl}propanoic acid] was run?
Its IC50 is 0.034 µM.

And the IC50 (Mcl-1 protein; [2])?
Its IC50 is 7.6e-09 M.

Which IC50 ([1]; Homo sapiens, NCI-H929, 48 h) does the source give for `COc1c(F)cccc1CC(Oc1ncnc2sc(-c3ccco3)c(-c3ccc(OCCN4CCN(C)CC4)c(Cl)c3C)c12)C(=O)O` [Example 352, (2R)-2-{[(5Sa)-5-{3-chloro-2-methyl-4-[2-(4-methylpiperazin-1-yl)ethoxy]phenyl}-6-(furan-2-yl)thieno[2,3-d]pyrimidin-4-yl]oxy}-3-(3-fluoro-2-methoxyphenyl)propanoic acid] here?
The IC50 was 0.91 µM.

And the IC50 (Mcl-1 protein; [2])?
The IC50 was 1.4e-08 M.

Which IC50 ([1]; Homo sapiens, NCI-H929, 48 h) does the source give for `Cc1c(-c2c(-c3cccn3C)sc3ncnc(OC(Cc4ccccc4)C(=O)O)c23)ccc(OCCN2CCN(C)CC2)c1Cl` [Example 503, (2R)-2-{[(5Sa)-5-{3-chloro-2-methyl-4-[2-(4-methylpiperazin-1-yl)ethoxy]phenyl}-6-(1-methyl-1H-pyrrol-2-yl)thieno[2,3-d]pyrimidin-4-yl]oxy}-3-phenylpropanoic acid] here?
Its IC50 is 7.02 µM.

And the IC50 (Mcl-1 protein; [3])?
The IC50 was 5e-07 M.

`CC#Cc1sc2ncnc(O[C@H](Cc3ccccc3OC)C(=O)O)c2c1-c1cc(C)c(OCCN2CCN(C)CC2)c(Cl)c1C` [Example 475, (2R)-2-{[(5Sa)-5-{3-chloro-2,5-dimethyl-4-[2-(4-methylpiperazin-1-yl)ethoxy]phenyl}-6-(prop-1-yn-1-yl)thieno[2,3-d]pyrimidin-4-yl]oxy}-3-(2-methoxyphenyl)propanoic acid] was tested. Which IC50 [1] did it give?
Its IC50 is 1.12 µM.

And the IC50 (Mcl-1 protein; [3])?
Its IC50 is 6.8e-09 M.

Which results are given for `Cc1c(-c2c(-c3ccc(F)cc3)sc3ncnc(OC(Cc4ccccc4OCc4ccnc(CC(C)C)n4)C(=O)O)c23)ccc(OCCN2CCN(C)CC2)c1Cl` [Example 38, (2R)-2-{[(5Sa)-5-{3-chloro-2-methyl-4-[2-(4-methylpiperazin-1-yl)ethoxy]phenyl}-6-(4-fluorophenyl)thieno[2,3-d]pyrimidin-4-yl]oxy}-3-(2-{[2-(2-methylpropyl)pyrimidin-4-yl]methoxy}phenyl)propanoic acid]?
IC50 ([1]; Homo sapiens, NCI-H929, 48 h): 0.016 µM; IC50 (Mcl-1 protein; [2]): 1.9e-09 M

How did the IC50 ([1]; Homo sapiens, NCI-H929, 48 h) turn out when `Cc1c(-c2c(-c3ccc(F)cc3)sc3ncnc(OC(Cc4ccccc4OCc4ccnc(Cl)c4)C(=O)O)c23)ccc(OCCN2CCN(C)CC2)c1Cl` [Example 19, (2R)-2-{[(5Sa)-5-{3-chloro-2-methyl-4-[2-(4-methylpiperazin-1-yl)ethoxy]phenyl}-6-(4-fluorophenyl)thieno[2,3-d]pyrimidin-4-yl]oxy}-3-{2-[(2-chloropyridin-4-yl)methoxy]phenyl}propanoic acid] was run?
Its IC50 is 0.064 µM.

What about the IC50 (Mcl-1 protein; [2]) of the same molecule?
Its IC50 is 4.4e-09 M.

What does the source list for `Cc1c(-c2c(-c3ccc(F)cc3)sc3ncnc(OC(Cc4ccccc4OCC(F)(F)F)C(=O)O)c23)ccc(OCC2CCCN2C)c1Cl` (single isomer, unassigned) [Example 658, (2R)-2-{[(5Sa)-5-{3-chloro-2-methyl-4-[((2S or R)-1-methylpyrrolidin-2-yl)methoxy]phenyl}-6-(4-fluorophenyl)thieno[2,3-d]pyrimidin-4-yl]oxy}-3-[2-(2,2,2-trifluoroethoxy)phenyl]propanoic acid]?
IC50 ([1]; Homo sapiens, NCI-H929, 48 h): 1.71 µM; IC50 (Mcl-1 protein; [3]): 1.8e-08 M
